Results on one compound are retold here after ChEMBL document CHEMBL1144114, “A new cacospongionolide derivative from the sponge Fasciospongia cavernosa” (J Nat Prod, 1999).

Converted amounts (≈) assume the structure as drawn.

In one series the test system is Bacillus subtilis. Nature of the series: Antibacterial activity against Bacillus subtilis DSM 347. It is filed as functional.
A further series relates to Micrococcus luteus. Put plainly: Antibacterial activity against Micrococcus luteus DSM 348. Format: functional.
The subject of a further series is Gambusia affinis. Nature of the series: Toxicity against Gambusia affinis. Format: organism-based. Conditions: in vivo.
The test system of another series is Artemia salina. Put plainly: Toxicity against Artemia salina. Format: organism-based. Particulars: in vivo.

In the case of `C[C@H]1CC=C2[C@H](CCCC2(C)C)[C@@]1(C)CCC1=CC[C@H](C2=CC(=O)O[C@H]2O)OC1` [CACOSPONGIONOLIDE F], the MIC with Bacillus subtilis and in the series with Micrococcus luteus was 0.78 µg/mL (≈ 1.95 µM) throughout. The LC50 (commonly the concentration lethal to half of the exposed cells or organisms) in the series on Gambusia affinis is reported as 0.7 ppm; with Artemia salina, 0.17 ppm.
